Measured values published in patent publication US20070249691A1, “Mercaptoimidazoles as Ccr2 Receptor Antagonists” (priority 2004, published 2007).

Tests used:
[1] = molecular target: T1, CCR2 (Homo sapiens, UniProt P41597); assay: Inhibition of MCP-1 induced Ca-flux in human THP-1 cells; assay type: cell-based; design: host or cells: THP-1 (human monocytic cell line); conditions: -log IC50 (molar), inhibition of specific MCP-1 (10^-7 M hMCP-1) induced Ca2+ flux, FLIPR
T1 sequence (P41597 1-360 isoform P41597-2): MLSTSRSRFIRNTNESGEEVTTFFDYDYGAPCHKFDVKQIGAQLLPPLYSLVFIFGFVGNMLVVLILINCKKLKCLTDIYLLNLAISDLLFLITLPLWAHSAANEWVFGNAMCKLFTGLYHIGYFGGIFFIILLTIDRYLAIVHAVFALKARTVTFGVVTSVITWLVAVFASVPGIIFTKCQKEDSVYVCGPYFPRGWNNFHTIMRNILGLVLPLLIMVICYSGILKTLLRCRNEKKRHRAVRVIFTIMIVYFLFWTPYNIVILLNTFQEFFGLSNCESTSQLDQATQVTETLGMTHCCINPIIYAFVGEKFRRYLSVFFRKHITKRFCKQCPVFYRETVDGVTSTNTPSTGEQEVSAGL
Method: Inhibition of MCP-1 Induced Ca-Flux in Human THP-1 Cells
MCP-1 binding to the CCR2 receptor induces a rapid and transient intracellular release of Ca^2+ (secondary messenger) in several cell lines (Charo et al, PNAS 1994). Free Ca^2+ levels can be measured using a Ca^2+ sensitive dye. When the CCR2 receptor is blocked with a CCR2 receptor antagonist, the MCP-1 induced release of Ca^2+ is inhibited.
Human THP-1 cells (monocytic cell line, ATCC TIB-202) were cultured in RPMI 1640 medium supplemented with 10% fetal calf serum (FCS), 1% L-Glutamine, penicillin (50 U/ml) and streptomycin (50 μg/ml) (all GIBCO BRL, Gent). After centrifugation, cells were loaded for 30 minutes with the Ca^2+ sensitive fluorescent dye Fluo-3 μM (Molecular Probes, Leiden, Netherlands) (2 million cells/ml in RPMI medium containing 4 μM Fluo-3 μM, 20 mM HEPES, 0.1% Bovine Serum Albumin (BSA) and 5 mM probenecid). Excess dye was removed by 3-fold washing with buffer (5 mM HEPES, 140 mM NaCl, 1 mM MgCl2, 5 mM KCl, 10 mM glucose, 2.5 mM probenecid, 1.25 mM CaCl2, 0.1% BSA; all further incubations were done in this buffer). Cells were plated at a density of 150 000 cells/well in dark-wall 96-well plates (Costar, Cambridge, Mass.) and sedimented by centrifugation (1 minute). The cells were pre-incubated for 20 minutes with test compound. Then, 10^−7 M hMCP-1 (Bachem, Bubendorf, Switserland) was added. Changes in intracellular free Ca^2+ concentration were measured using the Fluorescent Imaging Plate Reader (FLIPR, Molecular Devices, Munchen, Germany). Fluorescence was recorded every second from 10 seconds before the addition of the MCP-1 till 2 minutes after the addition (first minute: 60 records with 1 second intervals, second minute 20 records with 3 second intervals). The maximal fluorescence obtained during this time frame was used for further calculations.
Table 5 reports pIC50 values obtained in the above-described test for compounds of formula (I). pIC50 defines—log IC50 wherein IC50 is the molar concentration of the test compound which inhibits 50% of specific MCP-1 induced Ca^2+ flux.

[2] = molecular target: T1, CCR2; assay: Chemotactic response of human PBMC to MCP-1; assay type: cell-based; design: Mononuclear cells from human heparinized peripheral blood (PBMC) were isolated; endogenous in cells; host or cells: human peripheral blood mononuclear cells; conditions: inhibition of migration of human PBMC to 30 ng/ml hMCP-1, 105 minutes
Method: The CCR2 antagonistic activity of the compounds of the present invention can also be determined by measuring the effect of the compounds on the chemotactic response of cells in the presence of a chemokine, such as for example MCP-1.
Mononuclear cells from human heparinized peripheral blood (PBMC) were isolated using Ficoll-Paque gradient centrifugation (Amersham Biosciences). Assays of chemotactic responsiveness were performed using disposable 96-well chemotaxis chambers (ChemoTx, Neuro Probe) with 5-μm pore size polycarbonate (PVP-free) filter membranes. Mononuclear cells were fluorescently labeled with 5 μg/ml Calcein-AM (Molecular Probes, Eugene, Oreg.) at 37° C. for 30 minutes. Labeled cells were washed twice and resuspended at 5×10^6 cells/ml in Hanks' Balanced Salt Solution (Gibco BRL) supplemented with 0.2% bovine serum albumin. Subsequently, cells were pre-incubated for 10 minutes at room temperature with serial dilutions of the compounds in DMSO (dimethylsulfoxide) (final DMSO concentration of 0.2%). Bottom wells of the chemotaxis chamber were loaded with 28 μl medium containing 30 ng/ml recombinant hMCP-1 (R&D) or buffer only. Pre-treated cells (100.000 cells) were added in triplicate to the topside of the filter (20 μl) and incubated at 37° C. in humidified air containing 5% CO2. After 105 minutes incubation, the non-migrated cells were removed from the top of the filter by gently wiping the filter with a tissue. The migrated cells were measured using a fluorescent plate reader (λexcitation=485 nm; λemission=538 nm). The chemotactic response can be expressed as chemotactic index (C.I.), being the ratio of the means of migrated cells in the presence of MCP-1 and the means of migrated cells in the absence of chemokine. Percentage inhibition was calculated using the formula: [formula]
with Fsample, the fluorescence of the cells pre-incubated with 10, 1, 0.1, 0.01 or 0.001 μM compound and migrated to 30 ng/ml MCP-1 in the bottom wells; FMCP-1, the fluorescence of the cells pre-incubated with buffer-0.2% DMSO and migrated to 30 ng/ml MCP-1 and Fbuffer, the fluorescence of cells pre-incubated with buffer-0.2% DMSO and spontaneous migrated to buffer in the bottom wells. Table 7 lists the IC50 values (μM) obtained in the above-described test for compounds of formula (I). Assays were run in triplicate and repeated 2-7 times.

[3] = molecular target: T2, CCR2B (Homo sapiens, UniProt P41597); assay: 125I-MCP-1 radioligand binding assay, membranes from CCR2B-transfected CHO cells; conditions: competition with 0.15 nM 125I-MCP-1, CCR2B-transfected CHO cell membranes, Cheng-Prusoff
T2 construct: expressed in transfected cells; host or cells: CHO cells (membrane preparation)
T2 sequence (P41597 1-360 isoform P41597-2): T1 sequence (P41597 1-360 isoform P41597-2)
Method: Radioligand Binding Assay.
^125I-MCP-1 binding assays were performed in 96:well plates with 40 μg of protein per well. Compounds were dissolved and diluted in DMSO to 100× dilutions. A 10× concentration range of compounds was prepared in binding buffer (10% DSMO). Competition binding assays contained the following components in a total volume of 250 μl: 25 μl of the appropriate compound dilution (final concentration of 1% DMSO), 200 μl membranes from CCR2B-transfected CHO cells dissolved in binding buffer and 25 μl ^125I-MCP-1 (Bolton and Hunter labeled, Amersham, specific activity=2000 Ci/mmol, 0.15 nM final). Binding buffer was composed of 25 mM HEPES, 5 mM MgCl2, 1 mM CaCl2, 0.5% protease-free bovine serum albumin, pH 7.4. After 90 minutes incubation at 25° C. membranes were harvested on GF/B filters—presoaked in 0.5% polyethylenimine, followed by washing with buffer containing 25 mM HEPES, 5 mM MgCl2, 1 mM CaCl2, 5 mM NaCl, pH 7.4. Filter bound radioactivity was determined by liquid scintillation counting. EC50 values (μM) and Ki values (μM) were calculated. The ED50 value indicates the concentration of the test compound that competes with MCP-1 for half of the specific binding sites; the Ki value indicates the equilibrium dissociation constant, i.e. the concentration of the test compound that will bind to half of the binding sites at equilibrium in the absence of radioligand or other competitors. EC50 values and Ki values were calculated using non-linear regression in Graphpad Prism. Prism calculates the Ki or affinity of the receptor for the competing drug using the equation of Cheng and Prusoff (Biochem. Pharmacol. 1973, 22: 3099-3108). A low Ki indicates a high affinity of the receptor for the test compound. [formula] wherein Kd describes the affinity of the radioligand for the receptor, i.e. the concentration of the radioligand that will bind to half of the binding sites at equilibrium in the absence of competitors.
Table 6 lists Ki values (μM) obtained in the above-described test for compounds of formula (I).

SMILES | IC50 [1] | IC50 [2] | Ki [3] | melting point
CCCC(c1ccc(F)c(F)c1)n1c(C(=O)OC)c(-c2ccno2)[nH]c1=S (stereo not drawn) [Compound 48] | 0.0126 µM | – | – | –
CCC(c1ccc(F)c(F)c1)n1c(S)nc(-c2cc(C)on2)c1C(=O)OCCOC (stereo not drawn) [Compound 16] | 0.0316 µM | – | – | –
CCC(c1ccc(Cl)c(Cl)c1)n1c(C(=O)OC)c(-c2cnccn2)[nH]c1=S (stereo not drawn) [Compound 34] | 0.0251 µM | – | – | –
CCC(c1ccc(Cl)c(Cl)c1)n1c(C(=O)OC)c(-c2ccncc2)[nH]c1=S (stereo not drawn) [Compound 33] | 0.0126 µM | – | – | –
CCCC(c1ccc(F)c(F)c1)n1c(C(=O)OC)c(-c2cc(C)on2)[nH]c1=S (stereo not drawn) [Compound 49] | 0.0251 µM | – | – | –
CCC(c1ccc(Cl)c(Cl)c1)n1c(S)nc(-c2nnco2)c1C(=O)OC (stereo not drawn) [Compound 9] | 0.0355 µM | – | – | –
CCC(c1ccc(Cl)c(Cl)c1)n1c(C(=O)OC)c(-c2ccccn2)[nH]c1=S (stereo not drawn) [Compound 32] | 0.0251 µM | – | – | –
CCCC(c1ccc(Cl)c(Cl)c1)n1c(C(=O)OC)c(-c2nnc(C)o2)[nH]c1=S (stereo not drawn) [Compound 40] | 0.0437 µM | – | – | –
CCC(c1ccc(Cl)c(Cl)c1)n1c(C(=O)OC)c(-c2nnc(C)o2)[nH]c1=S (stereo not drawn) [Compound 27] | 0.0331 µM | – | – | –
CCC(c1ccc(Cl)c(Cl)c1)n1c(C(=O)OC)c(-c2ccno2)[nH]c1=S (stereo not drawn) [Compound 25] | 0.0132 µM | – | – | –
CCC(c1ccc(Cl)c(Cl)c1)n1c(C(=O)O)c(-c2cccs2)[nH]c1=S (stereo not drawn) [Compound 23] | – | 0.024 µM | – | –
CCC(c1ccc(Cl)c(Cl)c1)n1c(C(=O)OC)c(-c2cccnc2)[nH]c1=S (stereo not drawn) [Compound 51] | 0.0398 µM | 0.474 µM | – | –
CCC(c1ccc(F)c(F)c1)n1c(S)nc(-c2ccno2)c1C(=O)OC (stereo not drawn) [Compound 7] | 0.0117 µM | – | – | –
CCC(c1ccc(Cl)c(Cl)c1)n1c(C(=O)OC)c(-c2ccccc2)[nH]c1=S (stereo not drawn) [Compound 31] | 0.0759 µM | 0.214 µM | 0.07 µM | –
CCC(c1ccc(Cl)c(Cl)c1)n1c(C(=O)OC)c(-c2cccs2)[nH]c1=S (stereo not drawn) [Compound 6] | 0.055 µM | – | – | –
CCC(c1ccc(Cl)c(Cl)c1)n1c(C(=O)OC)c(-c2cc(C)on2)[nH]c1=S (stereo not drawn) [Compound 28] | 0.0158 µM | 0.367 µM | 0.01 µM | –
CCC(c1ccc(Cl)c(Cl)c1)n1c(C(=O)OC)c(-c2snnc2C)[nH]c1=S (stereo not drawn) [Compound 24] | 0.0724 µM | – | – | –
CCC(c1ccc(Cl)c(Cl)c1)n1c(C(=O)OC)c(-c2ccno2)[nH]c1=S (stereo not drawn) [Compound 26] | 0.00794 µM | – | 0.05 µM | –
COCC(c1ccc(F)c(F)c1)n1c(C(=O)OC)c(-c2nnc(C)o2)[nH]c1=S (stereo not drawn) [Compound 50] | – | – | – | 102.8 to 102.9 °C
CCC(c1ccc(F)c(F)c1)n1c(C(=O)NCCO)c(-c2nnc(C)o2)[nH]c1=S (stereo not drawn) [Compound 14] | – | – | – | 165 to 166 °C
CCC(c1ccc(Cl)c(Cl)c1)n1c(C(N)=O)c(-c2nnc(C)o2)[nH]c1=S (stereo not drawn) [Compound 36] | 0.0398 µM | 0.244 µM | 0.07 µM | –
CCC(c1ccc(F)c(F)c1)n1c(C(=O)OC)c(-c2ccno2)[nH]c1=S (stereo in doubt) [Compound 53, (S)-3-[1-(3,4-difluoro-phenyl)propyl]-5-isoxazol-5-yl-2-thioxo-2,3-dihydro-1H-imidazole-4-carboxylic acid methyl ester] | – | 0.108 µM | 0.03 µM | –
CCC(c1ccc(F)c(F)c1)n1c(C(N)=O)c(-c2nnc(C)o2)[nH]c1=S (stereo not drawn) [Compound 13] | – | – | 0.3 µM | 228 to 229 °C
CCC(c1ccc(Cl)c(Cl)c1)n1cc(-c2sc(N)nc2C)nc1S.Cl (stereo not drawn) | – | – | – | 301.8 to 303.3 °C
CC[C@H](c1ccc(F)c(F)c1)n1c(C(=O)OC)c(-c2ccno2)[nH]c1=S [Compound 43] | 0.00794 µM | – | 0.03 µM | –
